Experimental data reported in patent US6432381B1, “Methods for targeting drug delivery to the upper and/or lower gastrointestinal tract” (Elan Pharma International Limited, priority 1994, dated 2002).

Legend:
[1] = system: GI tract; assay: X-ray diagnostic imaging of mucoadhesion in the GI tract (rats); format: in vivo
Description: (§1) The amount and site of the mucoadhesion was determined by x-ray diagnostic imaging. The imaging was performed in anesthetized rats with the exception of G05-R1 samples which were imaged in fasted and anesthetized ferrets. Images were obtained using the Siemens C-Arm Siremobil 3U x-ray unit. The imaging dose was 10 ml/kg administered via gastric intubation to the anesthetized animal. X-rays were taken at 15, 30, 45 and 60 minutes and at 1, 2, 5 and 24 hours post-dose. A 10-15 ml volume of air was introduced to the animal at 30 minutes to produce a double contrast image.
(§2) Images were evaluated by the criteria of: coating, homogeneity, rate of gastric emptying and the total transit time. These are considered to be a measure of the stability of the suspension during transit down the GI tract and the ability of the formulation to adhere to the lower gastrointestinal tract. Suspensions were rated excellent when there was a uniform coating with transradiation of long intestinal segments, sufficient radiodensity to delineate anatomical structure, rapid emptying and transit, and stability and homogeneity during GI transit. A plus sign (+) was assigned when imaging in the lower GI was exceptional, a minus sign (−) as given when it was not. […]

[2] = system: GI tract; assay: X-ray diagnostic imaging of mucoadhesion in the GI tract (ferrets); format: in vivo; settings: suspension milled in Pluronic F127
Description: as §1, §2

[3] = Table 3
[4] = Particle size determination; format: physicochemical; settings: wet grinding
Description: As used herein, particle size is determined on the basis of weight average particle size as measured by conventional particle size measuring techniques well known to those skilled in the art, such as sedimentation field flow fractionation, photon correlation spectroscopy, or disk centrifugation. […] By “effective particle size” is meant that at least 90% of the particles in the sample measured by the above-noted weight sizing techniques have a particle size less than the stated size.
The particle size was determined during the milling process and again immediately before the suspensions were administered. Particle size was determined on the Coulter Model N4MD Submicron Particle Analyzer (Coulter Corp.; Miami Lakes, Fla.); and using the Microtrac Ultrafine Particle Analyzer (Leeds and Northrup Co.; St. Petersburg, Fla.).

CCOC(=O)c1c(I)c(NC(C)=O)c(I)c(NC(C)=O)c1I [WIN 8883, ethyl 3,5-bis(acetylamino)-2,4,6-triodobenzoate]
Upper and lower GI imaging rating ([1]; suspension milled in/stabilized with Pluronic F127, rats): excellent
GI imaging rating ([1]; suspension stabilized with F88, for the upper GI only): excellent
Upper and lower GI imaging rating [2]: excellent
Aqueous Solubility [3]: <5 µg/mL

C[C@@H]1[C@H](O)[C@@H](C)/C=C/C=C/C=C/C=C/C=C/C=C/C=C/[C@H](O[C@@H]2O[C@H](C)[C@@H](O)[C@H](N)[C@@H]2O)C[C@@H]2O[C@](O)(C[C@@H](O)C[C@@H](O)[C@H](O)CC[C@@H](O)C[C@@H](O)CC(=O)O[C@H]1C)C[C@H](O)[C@H]2C(=O)O [amphotericin B]
Particle Size Weight Average ([4]; amphotericin B 5%, poloxamer F-68 2.5%): 426 nm
Particle Size Weight Average ([4]; amphotericin B 5%, poloxamer F-127 2.5%): 510 nm

CCC(=O)OCC(=O)[C@@]1(OC(=O)CC)[C@@H](C)C[C@H]2[C@@H]3CCC4=CC(=O)C=C[C@]4(C)[C@@]3(Cl)[C@@H](O)C[C@@]21C [beclomethasone dipropionate]
Particle Size Weight Average ([4]; beclomethasone dipropionate 5%, poloxamer F-68 2.5%): 221 nm
Particle Size Weight Average ([4]; beclomethasone dipropionate 5%, poloxamer F-127 2.5%): 244 nm

CS(=O)(=O)OCCCCOS(C)(=O)=O [busulfan]
Particle Size Weight Average ([4]; busulfan 2%, poloxamer F-108 0.5%): 387 nm

CC[C@@]1(O)C(=O)OCc2c1cc1n(c2=O)Cc2cc3ccccc3nc2-1 [camptothecin]
Particle Size Weight Average ([4]; camptothecin 2%, poloxamer F-68 2%): 107 nm
Particle Size Weight Average ([4]; camptothecin 2%, poloxamer F-108 1%): 111 nm

COC1=CC(=O)C[C@@H](C)[C@]12Oc1c(Cl)c(OC)cc(OC)c1C2=O [griseofulvin]
Particle Size Weight Average ([4]; griseofulvin 5%, poloxamer F-68 2.5%): 617 nm
Particle Size Weight Average ([4]; griseofulvin 5%, poloxamer F-127 2.5%): 617 nm

CC(C)Cc1ccc(C(C)C(=O)O)cc1 (centres unmarked) [ibuprofen]
Particle Size Weight Average ([4]; ibuprofen 3%, poloxamer F-68 2.0%): 253 nm

COc1ccc2c(c1)c(CC(=O)O)c(C)n2C(=O)c1ccc(Cl)cc1 [indomethacin]
Particle Size Weight Average ([4]; indomethacin 5%, poloxamer F-68 1%): 228 nm
Particle Size Weight Average ([4]; indomethacin 5%, poloxamer F-68 2.5%): 193 nm

CN(Cc1cnc2nc(N)nc(N)c2n1)c1ccc(C(=O)N[C@@H](CCC(=O)O)C(=O)O)cc1 [methotrexate]
Particle Size Weight Average ([4]; methotrexate 5%, poloxamer F-68 2.5%): 196 nm
Particle Size Weight Average ([4]; methotrexate 5%, poloxamer F-127 2.5%): 248 nm

COc1ccc2cc([C@H](C)C(=O)O)ccc2c1 [naproxen]
Particle Size Weight Average ([4]; naproxen 5%, poloxamer F-68 3.0%): 270 nm

O=C1NC(=O)C(c2ccccc2)(c2ccccc2)N1 [phenytoin]
Particle Size Weight Average ([4]; phenytoin 5%, poloxamer F-68 2.5%): 385 nm
Particle Size Weight Average ([4]; phenytoin 5%, poloxamer F-108 2.5%): 385 nm
Particle Size Weight Average ([4]; phenytoin 5%, poloxamer F-127 2.5%): 431 nm

CS(=O)(=O)OCCC(=O)N1CCN(C(=O)CCOS(C)(=O)=O)CC1 [piposulfan]
Particle Size Weight Average ([4]; piposulfan 2%, poloxamer F-108 0.5%): 339 nm
